Data published in patent US6310177A, “Compounds and methods for modulating tissue permeability” (Adherex Technologies, Inc., priority 2000, dated 2001).
Where a SMILES comes first, the peptide text is derived from it. Bridges are numbered along the chain shown (N, C = ends).

Tests used:
[1] = test system: endothelial cell permeability in vivo; assay: Miles assay for vascular permeability; details: rat, 100 μl subdermal injection of 100 μg/ml peptide in PBS, Evans blue i.v. 15 min later; for dye extracted from excised injection sites (optical density of dimethylformamide extracts at 620 nm): 24 h extraction, FIG. 6 and FIG. 8; for accumulation of Evans blue at the injection sites (visual): read 15 min after dye, FIG. 5
Method: The ability of an agent to modulate cell adhesion may generally be evaluated in vivo by assessing the effect on vascular permeability utilizing the Miles assay (McClure et al., J. Pharmacological& Toxicological Methods 32:49-52, 1994). Briefly, a candidate modulating agent may be dissolved in phosphate buffered saline (PBS) at a concentration of 100 μg/ml. Adult rats may be given 100 μl subdermal injections of each peptide solution into their shaved backs, followed 15 minutes later by a single 250 μl injection of 1% Evans blue dissolved in PBS into their tail veins. The subdermal injection sites may be visually monitored for the appearance of blue dye. Once the dye appears (about 15 minutes after injection), each subdermal injection site may be excised, weighed, and placed in 1 ml dimethylformamide for 24 hours to extract the dye. The optical density of the dye extracts may then be determined at 620 nm. In general, the injection of 0.1 ml of modulating agent (at a concentration of 0.1 mg/ml) into the backs of rats causes an increase of dye accumulation at the injection sites of at least 50%, as compared to dye accumulation at sites into which PBS has been injected.
This Example illustrates a vasopermeability assay for evaluating the effects of occludin-modulating agents on endothelial cell permeability in vivo.
The ability of cyclic and linear peptides to increase vascular permeability was assessed utilizing the Miles assay (McClure et al., J. Pharmacological& Toxicological Meth. 32:49-521994). The peptides were dissolved in phosphate buffered saline (PBS) at a concentration of 100 μg/ml. Adult rats were given 100 μl subdermal injections of each peptide solution into their shaved backs, followed 15 minutes later by a single 250 μl injection of 1% Evans blue dissolved in PBS into their tail veins. The subdermal injection sites were visually monitored for the appearance of blue dye. Once the dye appeared (15 minutes after injection), each subdermal injection site was excised, weighed, and placed in 1 ml dimethylformamide for 24 hours to extract the dye. The optical density of the dye extracts was determined at 620 nm. The effects of injecting either phosphate buffered saline, phosphate buffered saline containing acetyl-QYLYHYCVVD-NH2 (SEQ ID NO:2) H-QYLYHYCVVD-NH2 (SEQ ID NO:2), or H-QYLYHYCVVD-OH (SEQ ID NO:2) into sites along the shaved back of a rat on the accumulation of Evans blue at the injection sites is shown in FIG. 5.

[2] = test system: Human aortic endothelial cells (HAEC); assay: Endothelial cell adhesion assay with occludin and VE-cadherin immunolocalization; format: cell-based; details: 1 hour
From the text: The effect of a modulating agent on endothelial cell adhesion may generally be evaluated using immunolocalization techniques. Human aortic endothelial cells (HAEC) may be cultured on fibronectin-coated coverslips (fibronectinmay be obtained from Sigma, St. Louis, Mo.) according to the procedures of Jaffe et al., J. Clin. Invest. 52:2745-2756, 1973. Briefly, human endothelial cells may be maintained in EGM (endothelial cell growth medium; Clonetics, San Diego, Calif.) and used for experiments at passage 4. Confluent cultures of HAEC may be exposed to either a candidate modulating agent (final concentration 100 μg/ml EGM), or EGM alone for 1 hour. The cells are then be fixed for 30 minutes at 4° C. in 95% ethanol, followed by fixation in acetone for 1 minute at 4° C. (Furuse et al., J. Cell Biol. 123:1777-1788, 1993). After fixation, the cells may be probed with either mouse anti-VE-cadherin antibodies (Hemeris, Sassenage, France; diluted 1:250 in 0.1% dried skim milk powder dissolved in PBS), or rabbit anti-occludin antibodies (Zymed, South San Francisco, Calif.; diluted 1:300 in 0.1% dried skim milk powder dissolved in PBS) for 1 hour at 37° C. The cells may then be washed with 0.1% dried skim milk powder dissolved in PBS (three washes, 5 minutes/wash), and probed with secondary antibodies (donkey anti-mouse Cy3, or donkey anti-rabbit Cy5 diluted 1:250 in 0.1% dried skim milk powder dissolved in PBS; Jackson Immunoresearch Laboratories Inc., Westgrove, Pa.) for 1 hour at 37° C. The cells may then be washed again with in 0.1% dried skim milk powder dissolved in PBS and mounted in a solution composed of 50% glycerol and 50% PBS to which phenylenediamine (Sigma, St. Louis, Mo.) has been added to a final concentration of 1 mg/ml. The sample may then be analyzed using a Bio-Rad MRC 1000 confocal microscope with Laser Sharp software version 2.1T (Bio-Rad, Hercules, Calif.). In general, 0.1 mg/ml of modulating agent results in the appearance of intercellular gaps within the monolayer cultures and a decrease of at least 50% in the surface expression of occludin and VE-cadherin, as compared to monolayer cultures that were not exposed to the modulating agent.
This Example illustrates an endothelial cell adhesion assay for evaluating the effects of occludin-modulating agents on endothelial cell adhesion.
Human aortic endothelial cells (HAEC) were cultured on fibronectin (Sigma, St. Louis, Mo.) according to the procedures of Jaffe et al., J. Clin. Invest. 52:2745-2756, 1973. Cells were maintained in EGM (endothelial cell growth medium; Clonetics, San Diego, Calif.) and used for experiments at passage 4.
HAEC were cultured on fibronectin-coated coverslips. Confluent cultures of HAEC were exposed to linear peptides (final concentration 100 μg/ml EGM), or EGM alone for 1 hour. […]

[3] = HAEC, 100 μg/ml peptide, immunofluorescence, vs untreated cells

| Compound | dye extracted from excised injection sites (optical density of dimethylformamide extracts at 620 nm) [1] | accumulation of Evans blue at the injection sites (visual) [1] | surface expression of VE-cadherin [2, 3] | surface expression of occludin [2, 3] | endothelial cell adhesion (retraction of cells, gaps between cells) ([2]; confluent HAEC monolayers, 100 μg/ml peptide in EGM, vs untreated cells, FIG. 4) | formation of cobblestone-like monolayers ([2]; confluent HAEC, 100 μg/ml peptide, FIG. 4B) |
| --- | --- | --- | --- | --- | --- | --- |
| CC(C)C[C@@H]1NC(=O)[C@@H](N)CSSC[C@@H](C(=O)O)NC(=O)[C@H](Cc2ccc(O)cc2)NC(=O)[C@H](Cc2c[nH]cn2)NC(=O)[C@H](Cc2ccc(O)cc2)NC1=O [H-CLYHYC-OH] (H-CLYHYC-OH; disulfide 1-6) | more dye was extracted | – | – | – | – | – |
| CC(=O)N[C@H]1CSSC[C@@H](C(N)=O)NC(=O)[C@H](Cc2ccc(O)cc2)NC(=O)[C@H](Cc2c[nH]cn2)NC(=O)[C@H](Cc2ccc(O)cc2)NC(=O)[C@H](CC(C)C)NC1=O [acetyl-CLYHYC-NH2] (Ac-CLYHYC-NH2; disulfide 1-6) | more dye was extracted from the sites injected with H-CLYHYC-OH | – | – | – | – | – |
| Ac-QYLYHYCVVD-NH2 [acetyl-QYLYHYCVVD-NH2] | more dye was extracted from the sites injected with H-QYLYHYCVVD-OH | more blue dye has accumulated at the sites where the peptide H-QYLYHYCVVD-OH | – | – | – | – |
| H-QYLYHYCVVD-NH2 [H-QYLYHYCVVD-NH2] | more dye was extracted from the sites injected with H-QYLYHYCVVD-OH | more blue dye has accumulated at the sites where the peptide H-QYLYHYCVVD-OH | – | – | – | – |
| H-QYLYHYCVVD-OH [H-QYLYHYCVVD-OH] | more dye was extracted | more blue dye has accumulated | greatly reduced | greatly reduced | adhesion is decreased between the cells | do not form cobblestone-like monolayers |
